Numbers after ± are expanded uncertainties.
Experiments:
[1] = 101.3 kPa, Liquid; for viscosity: Capillary tube (Ostwald / Ubbelohde) method; for mass density: Pycnometric method
[2] = xn = mol fraction of the nth substance listed; settings: 101.3 kPa, Liquid, x1 = 1; for viscosity: Capillary tube (Ostwald / Ubbelohde) method; for mass density: Pycnometric method

Row | Compound | viscosity ([1]; 298.15 K) [mPa·s] | mass density ([1]; 298.15 K) [kg/m3] | viscosity ([1]; 303.15 K) [mPa·s] | mass density ([1]; 303.15 K) [kg/m3] | viscosity ([1]; 308.15 K) [mPa·s] | mass density ([1]; 308.15 K) [kg/m3] | viscosity ([1]; 313.15 K) [mPa·s] | mass density ([1]; 313.15 K) [kg/m3] | viscosity ([2]; 298.15 K) [mPa·s] | mass density ([2]; 298.15 K) [kg/m3] | viscosity ([2]; 303.15 K) [mPa·s] | mass density ([2]; 303.15 K) [kg/m3] | viscosity ([2]; 308.15 K) [mPa·s] | mass density ([2]; 308.15 K) [kg/m3] | viscosity ([2]; 313.15 K) [mPa·s] | mass density ([2]; 313.15 K) [kg/m3]
1 | CN(C)C=O [dimethylformamide] | 0.803 ± 0.006 | 944.5 ± 0.3 | 0.756 ± 0.005 | 939.8 ± 0.3 | 0.71 ± 0.005 | 935.1 ± 0.3 | 0.673 ± 0.005 | 930.2 ± 0.3 |  |  |  |  |  |  |  | 
2 | CN(C)C=O [dimethylformamide] + Nc1ccccc1 |  |  |  |  |  |  |  |  | 0.803 ± 0.006 | 944.5 ± 0.3 | 0.756 ± 0.005 | 939.8 ± 0.3 | 0.71 ± 0.005 | 935.1 ± 0.3 | 0.673 ± 0.005 | 930.2 ± 0.3
3 | CN(C)C=O [dimethylformamide] + N#Cc1ccccc1 |  |  |  |  |  |  |  |  | 0.803 ± 0.006 | 944.5 ± 0.3 | 0.756 ± 0.005 | 939.8 ± 0.3 | 0.71 ± 0.005 | 935.1 ± 0.3 | 0.673 ± 0.005 | 930.2 ± 0.3
4 | N#Cc1ccccc1 [benzonitrile] | 1.171 ± 0.009 | 1000.9 ± 0.6 | 1.126 ± 0.009 | 996.4 ± 0.6 | 1.068 ± 0.009 | 991.9 ± 0.6 | 1.001 ± 0.008 | 987.2 ± 0.6 |  |  |  |  |  |  |  | 
5 | Nc1ccccc1 [aniline] | 3.69 ± 0.028 | 1017.2 ± 0.6 | 3.19 ± 0.024 | 1012.9 ± 0.6 | 2.8 ± 0.021 | 1008.6 ± 0.6 | 2.42 ± 0.018 | 1004.2 ± 0.6 |  |  |  |  |  |  |  | 

Reference: the NIST ThermoML archive (doi:10.1021/je030101n)
